Experimental data as given in ChEMBL document CHEMBL1201861, “Genomics of Drug Sensitity in Cancer screening data, Wellcome Trust Sanger Institute”.
“And” between values parts separate entries of the source, which are not always exact repeats. Identical values can stand only once. Where a SMILES comes first, the peptide text is derived from it. The star is where a group is joined. Cbz = O=C(OCc1ccccc1)*

Columns and labels:
Assay in all cases: cells
[1] = tested on: RXF 393; format: functional, cell-based, Homo sapiens;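 also: growth inhibition of human RXF 393 cells, read out with a cell viability assay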
Description: SANGER: Inhibition of human RXF393 cell growth in a cell viability assay.

[2] = tested on: HCE-4; format: functional, cell-based; conditions: Homo sapiens;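 also: cell viability assay measuring inhibition of growth in the human HCE-4 cell line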
Description: SANGER: Inhibition of human HCE-4 cell growth in a cell viability assay.

[3] = tested on: HCC1187; format: functional, cell-based, Homo sapiens;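 also: growth inhibition of HCC1187 cells, read out with a cell viability assay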
Description: SANGER: Inhibition of human HCC1187 cell growth in a cell viability assay.

[4] = tested on: Calu-6; format: functional, cell-based, Homo sapiens;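 also: growth of human Calu-6 cells, read out by a cell viability assay, IC50 marking inhibition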
Description: SANGER: Inhibition of human Calu-6 cell growth in a cell viability assay.

[5] = tested on: NCI-H1355; format: functional, cell-based, Homo sapiens;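 also: growth inhibition of human NCI-H1355 cells, read out by a cell viability assay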
Description: SANGER: Inhibition of human NCI-H1355 cell growth in a cell viability assay.

[6] = tested on: NCI-H446; format: functional, cell-based, Homo sapiens;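 also: growth inhibition of NCI-H446 cells determined by a cell viability assay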
Description: SANGER: Inhibition of human NCI-H446 cell growth in a cell viability assay.

[7] = tested on: TE-8; format: functional, cell-based, Homo sapiens;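 also: growth inhibition of TE-8 cells, measured with a cell viability readout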
Description: SANGER: Inhibition of human TE-8 cell growth in a cell viability assay.

[8] = tested on: NCI-H1092; format: functional, cell-based, Homo sapiens;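 also: cell growth inhibition measured with a cell viability assay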
Description: SANGER: Inhibition of human NCI-H1092 cell growth in a cell viability assay.

[9] = tested on: IST-SL1; format: functional, cell-based, Homo sapiens;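 also: growth inhibition of human IST-SL1 cells, read out with a cell viability assay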
Description: SANGER: Inhibition of human IST-SL1 cell growth in a cell viability assay.

[10] = tested on: BT-474; format: functional, cell-based, Homo sapiens
Description: SANGER: Inhibition of human BT-474 cell growth in a cell viability assay.

[11] = tested on: TE-12; format: functional, cell-based, Homo sapiens;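 also: growth inhibition of TE-12 cells, read out by a cell viability assay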
Description: SANGER: Inhibition of human TE-12 cell growth in a cell viability assay.

[12] = tested on: SK-MEL-2; format: functional, cell-based, Homo sapiens;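 also: growth inhibition of human SK-MEL-2 cells measured with a cell viability assay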
Description: SANGER: Inhibition of human SK-MEL-2 cell growth in a cell viability assay.

[13] = tested on: SK-N-DZ; format: functional, cell-based, Homo sapiens; conditions: read-out: IC50;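 also: growth inhibition of the cancer cell line, read out through a viability assay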
Description: SANGER: Inhibition of human SK-N-DZ cell growth in a cell viability assay.

[14] = tested on: ES1; format: functional, cell-based, Homo sapiens;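 also: growth inhibition of ES1 cells, read out with a cell viability assay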
Description: SANGER: Inhibition of human ES1 cell growth in a cell viability assay.

[15] = tested on: NCI-H1395; format: functional, cell-based, Homo sapiens;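 also: cell viability assay read-out quantifying reduced proliferation of human NCI-H1395 cells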
Description: SANGER: Inhibition of human NCI-H1395 cell growth in a cell viability assay.

[16] = tested on: U-266; format: functional, cell-based, Homo sapiens
Description: SANGER: Inhibition of human U-266 cell growth in a cell viability assay.

[17] = tested on: OMC-1; format: functional, cell-based, Homo sapiens;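 also: growth inhibition of the OMC-1 cell line, measured by a cell viability assay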
Description: SANGER: Inhibition of human OMC-1 cell growth in a cell viability assay.

[18] = tested on: EW-3; format: functional, cell-based, Homo sapiens;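 also: cell viability assay read-out, IC50 reflects inhibition of growth of the EW-3 cells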
Description: SANGER: Inhibition of human EW-3 cell growth in a cell viability assay.

[19] = tested on: NCI-H720; format: functional, cell-based, Homo sapiens;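 also: growth inhibition of human NCI-H720 cells determined by a cell viability assay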
Description: SANGER: Inhibition of human NCI-H720 cell growth in a cell viability assay.

[20] = tested on: ALL-PO; format: functional, cell-based, Homo sapiens;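 also: growth inhibition of ALL-PO cells, read out by a cell viability assay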
Description: SANGER: Inhibition of human ALL-PO cell growth in a cell viability assay.

[21] = tested on: P30-OHK; format: functional, cell-based, Homo sapiens;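 also: growth inhibition of the P30-OHK cell line, read out with a cell viability assay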
Description: SANGER: Inhibition of human P30-OHK cell growth in a cell viability assay.

[22] = tested on: LOX IMVI; format: functional, cell-based, Homo sapiens
Description: SANGER: Inhibition of human LOXIMVI cell growth in a cell viability assay.

[23] = tested on: NCI-H226; format: functional, cell-based, Homo sapiens;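 also: cell viability read-out used to gauge growth inhibition of the cells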
Description: SANGER: Inhibition of human NCI-H226 cell growth in a cell viability assay.

[24] = tested on: MV4-11; format: functional, cell-based, Homo sapiens, MV-4-11;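 also: cell viability readout measuring growth inhibition of human MV-4-11 cells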
Description: SANGER: Inhibition of human MV-4-11 cell growth in a cell viability assay.

[25] = tested on: K562; format: functional, cell-based, Homo sapiens
Description: SANGER: Inhibition of human K-562 cell growth in a cell viability assay.

[26] = tested on: NCI-H2126; format: functional, cell-based, Homo sapiens;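 also: growth inhibition of the cancer cell line, determined with a cell viability readout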
Description: SANGER: Inhibition of human NCI-H2126 cell growth in a cell viability assay.

[27] = tested on: SK-LMS-1; format: functional, cell-based, Homo sapiens;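 also: growth inhibition of human SK-LMS-1 cells, read out with a cell viability assay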
Description: SANGER: Inhibition of human SK-LMS-1 cell growth in a cell viability assay.

[28] = tested on: MPP-89; format: functional, cell-based, Homo sapiens;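 also: growth inhibition of human MPP-89 cells, read out with a cell viability assay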
Description: SANGER: Inhibition of human MPP-89 cell growth in a cell viability assay.

[29] = tested on: NB5; format: functional, cell-based, Homo sapiens;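 also: growth inhibition of NB5 cells, read out as cell viability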
Description: SANGER: Inhibition of human NB5 cell growth in a cell viability assay.

[30] = tested on: DJM-1; format: functional, cell-based, Homo sapiens;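 also: growth inhibition of human DJM-1 cells, read out by a cell viability assay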
Description: SANGER: Inhibition of human DJM-1 cell growth in a cell viability assay.

[31] = tested on: BE-13; format: functional, cell-based, Homo sapiens;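 also: growth inhibition of human BE-13 cells, measured with a cell viability assay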
Description: SANGER: Inhibition of human BE-13 cell growth in a cell viability assay.

[32] = tested on: A253 cell line; format: functional, cell-based, Homo sapiens;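 also: growth inhibition of A253 cells, read out with a cell viability assay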
Description: SANGER: Inhibition of human A253 cell growth in a cell viability assay.

[33] = tested on: GCIY; format: functional, cell-based, Homo sapiens;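 also: growth inhibition of the human GCIY cell line, read out by a cell viability assay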
Description: SANGER: Inhibition of human GCIY cell growth in a cell viability assay.

[34] = tested on: NCI-H1770; format: functional, cell-based, Homo sapiens;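 also: growth inhibition of NCI-H1770 cells determined with a viability readout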
Description: SANGER: Inhibition of human NCI-H1770 cell growth in a cell viability assay.

[35] = tested on: VA-ES-BJ; format: functional, cell-based, Homo sapiens;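 also: growth inhibition of the VA-ES-BJ cell line, read out by a cell viability assay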
Description: SANGER: Inhibition of human VA-ES-BJ cell growth in a cell viability assay.

[36] = tested on: MHH-NB-11; format: functional, cell-based, Homo sapiens;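 also: growth inhibition of human MHH-NB-11 cells, read out by a cell viability assay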
Description: SANGER: Inhibition of human MHH-NB-11 cell growth in a cell viability assay.

[37] = tested on: CGTH-W-1; format: functional, cell-based, Homo sapiens;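 also: growth inhibition of human CGTH-W-1 cells measured by cell viability assay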
Description: SANGER: Inhibition of human CGTH-W-1 cell growth in a cell viability assay.

[38] = tested on: SW 954; format: functional, cell-based, Homo sapiens;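 also: growth inhibition of SW954 human cancer cells, read out as cell viability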
Description: SANGER: Inhibition of human SW954 cell growth in a cell viability assay.

[39] = tested on: MOLT-4; format: functional, cell-based, Homo sapiens;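 also: growth inhibition of MOLT-4 cells, determined with a cell viability readout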
Description: SANGER: Inhibition of human MOLT-4 cell growth in a cell viability assay.

[40] = tested on: IA-LM; format: functional, cell-based; conditions: Homo sapiens;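 also: cell viability assay measuring growth inhibition of human IA-LM cells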
Description: SANGER: Inhibition of human IA-LM cell growth in a cell viability assay.

[41] = tested on: NB10; format: functional, cell-based, Homo sapiens;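 also: growth inhibition of NB10 cells, read out by a cell viability assay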
Description: SANGER: Inhibition of human NB10 cell growth in a cell viability assay.

[42] = tested on: GI-ME-N; format: functional, cell-based, Homo sapiens;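 also: growth inhibition of human GI-ME-N cells, read out with a cell viability assay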
Description: SANGER: Inhibition of human GI-ME-N cell growth in a cell viability assay.

[43] = tested on: HEL; format: functional, cell-based, Homo sapiens;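 also: growth inhibition of HEL cells, read out with a cell viability assay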
Description: SANGER: Inhibition of human HEL cell growth in a cell viability assay.

[44] = tested on: COR-L88; format: functional, cell-based, Homo sapiens;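 also: growth inhibition of COR-L88 cells, read out with a cell viability assay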
Description: SANGER: Inhibition of human COR-L88 cell growth in a cell viability assay.

[45] = tested on: EW-13; format: functional, cell-based, Homo sapiens; conditions: read-out: IC50;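 also: growth inhibition of EW-13 cells, read out with a cell viability assay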
Description: SANGER: Inhibition of human EW-13 cell growth in a cell viability assay.

[46] = tested on: MN-60; format: functional, cell-based, Homo sapiens;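 also: growth inhibition of the MN-60 cell line, determined with a cell viability assay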
Description: SANGER: Inhibition of human MN-60 cell growth in a cell viability assay.

[47] = tested on: NCI-H1648; format: functional, cell-based, Homo sapiens;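 also: cell viability assay measuring inhibition of NCI-H1648 cell growth, from the Sanger screening data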
Description: SANGER: Inhibition of human NCI-H1648 cell growth in a cell viability assay.

[48] = tested on: KALS-1; format: functional, cell-based, Homo sapiens; conditions: read-out: IC50;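 also: growth inhibition of KALS-1 cells, determined with a cell viability assay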
Description: SANGER: Inhibition of human KALS-1 cell growth in a cell viability assay.

[49] = tested on: ACN; format: functional, cell-based, Homo sapiens;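 also: growth inhibition of the human ACN cell line, read out via cell viability testing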
Description: SANGER: Inhibition of human ACN cell growth in a cell viability assay.

## CC(C)C[C@@H](C=O)NC(=O)[C@H](CC(C)C)NC(=O)[C@H](CC(C)C)NC(=O)OCc1ccccc1 [MG-132] (Cbz-Leu-Leu-Leu-aldehyde)
[1]; rxf 393
  IC50: 250 nM and > 1000 nM
[2]
  IC50: > 1000 nM
[3]; hcc1187
  IC50: > 1000 nM
[4]; Homo sapiens, Calu-6
  IC50: > 1000 nM
[4]; calu-6
  IC50: > 1000 nM
[5]; nci-h1355
  IC50: 686 nM and > 1000 nM
[6]; Homo sapiens, NCI-H446
  IC50: > 1000 nM
[6]; nci-h446
  IC50: > 1000 nM
[7]; Homo sapiens, TE-8
  IC50: 343 nM
[7]; te-8
  IC50: 270 nM
[8]; nci-h1092
  IC50: 388 nM and > 1000 nM
[9]; ist-sl1
  IC50: 201 nM and > 1000 nM
[10]; bt-474
  IC50: > 1000 nM
[11]; Homo sapiens, TE-12
  IC50: > 1000 nM
[11]; te-12
  IC50: > 1000 nM
[12]; sk-mel-2
  IC50: > 1000 nM
[13]; sk-n-dz
  IC50: > 1000 nM
[14]; es1
  IC50: > 1000 nM
[15]; Homo sapiens, NCI-H1395
  IC50: > 1000 nM
[15]; nci-h1395
  IC50: > 1000 nM
[16]; u-266
  IC50: > 1000 nM
[17]; omc-1
  IC50: > 1000 nM
[18]; ew-3
  IC50: > 1000 nM
[19]; nci-h720
  IC50: > 1000 nM
[20]; all-po
  IC50: > 1000 nM
[21]; p30-ohk
  IC50: > 1000 nM
[22]; Homo sapiens, LOX IMVI
  IC50: > 1000 nM
[22]; lox imvi
  IC50: > 1000 nM
[23]; Homo sapiens, NCI-H226
  IC50: > 1000 nM
[23]; nci-h226
  IC50: > 1000 nM
[24]; mv-4-11
  IC50: > 1000 nM
[25]; k562
  IC50: > 1000 nM
[26]; nci-h2126
  IC50: 627 nM and > 1000 nM
[27]; sk-lms-1
  IC50: 193 nM and > 1000 nM
[28]; mpp-89
  IC50: > 1000 nM
[29]; nb5
  IC50: > 1000 nM
[30]; djm-1
  IC50: > 1000 nM
[31]; be-13
  IC50: > 1000 nM and 562 nM
[32]; a253
  IC50: 161 nM and > 1000 nM
[33]; gciy
  IC50: > 1000 nM
[34]; nci-h1770
  IC50: > 1000 nM
[35]; va-es-bj
  IC50: 223 nM and > 1000 nM
[36]; Homo sapiens, MHH-NB-11
  IC50: > 1000 nM
[36]; mhh-nb-11
  IC50: > 1000 nM
[37]; cgth-w-1
  IC50: > 1000 nM
[38]; Homo sapiens, SW 954
  IC50: > 1000 nM
[38]; sw 954
  IC50: > 1000 nM
[39]; molt-4
  IC50: > 1000 nM
[40]
  IC50: > 1000 nM
[41]; nb10
  IC50: > 1000 nM
[42]; gi-me-n
  IC50: 193 nM and > 1000 nM
[43]; hel
  IC50: 185 nM and > 1000 nM
[44]; cor-l88
  IC50: > 1000 nM
[45]; Homo sapiens, EW-13
  IC50: > 1000 nM
[45]; ew-13
  IC50: > 1000 nM
[46]; Homo sapiens, MN-60
  IC50: > 1000 nM
[46]; mn-60
  IC50: > 1000 nM
[47]; Homo sapiens, NCI-H1648
  IC50: > 1000 nM
[47]; nci-h1648
  IC50: > 1000 nM
[48]; kals-1
  IC50: 466 nM and > 1000 nM
[49]; acn
  IC50: 226 nM and > 1000 nM

## C/C(=C\c1csc(C)n1)[C@@H]1C[C@@H]2O[C@]2(C)CCC[C@H](C)[C@H](O)[C@@H](C)C(=O)C(C)(C)[C@@H](O)CC(=O)O1 [PATUPILONE]
[1]; Homo sapiens, RXF 393
  IC50: 3.41 nM
[2]
  IC50: 1.3 nM
[3]; Homo sapiens, HCC1187
  IC50: 22.6 nM
[4]; Homo sapiens, Calu-6
  IC50: 7.14 nM
[5]; Homo sapiens, NCI-H1355
  IC50: 0.915 nM
[6]; Homo sapiens, NCI-H446
  IC50: 21.4 nM
[7]; Homo sapiens, TE-8
  IC50: 0.111 nM
[8]; Homo sapiens, NCI-H1092
  IC50: > 32 nM
[9]; Homo sapiens, IST-SL1
  IC50: 6.37 nM
[10]; Homo sapiens, BT-474
  IC50: 13.2 nM
[11]; Homo sapiens, TE-12
  IC50: 5.47 nM
[12]; Homo sapiens, SK-MEL-2
  IC50: 7.19 nM
[13]; Homo sapiens, SK-N-DZ
  IC50: 7.59 nM
[14]; Homo sapiens, ES1
  IC50: 0.221 nM
[15]; Homo sapiens, NCI-H1395
  IC50: > 32 nM
[16]; Homo sapiens, U-266
  IC50: 9.72 nM
[17]; Homo sapiens, OMC-1
  IC50: > 32 nM
[18]; Homo sapiens, EW-3
  IC50: > 32 nM
[19]; Homo sapiens, NCI-H720
  IC50: > 32 nM
[20]; Homo sapiens, ALL-PO
  IC50: 1.47 nM
[21]; Homo sapiens, P30-OHK
  IC50: 4.49 nM
[22]; Homo sapiens, LOX IMVI
  IC50: > 32 nM
[23]; Homo sapiens, NCI-H226
  IC50: > 32 nM
[24]; Homo sapiens, MV4-11
  IC50: 1.7 nM
[25]; Homo sapiens, K562
  IC50: 6.89 nM
[26]; Homo sapiens, NCI-H2126
  IC50: 15.6 nM
[27]; Homo sapiens, SK-LMS-1
  IC50: 0.646 nM
[28]; Homo sapiens, MPP-89
  IC50: 8.29 nM
[29]; Homo sapiens, NB5
  IC50: 10.6 nM
[30]; Homo sapiens, DJM-1
  IC50: 3.13 nM
[31]; Homo sapiens, BE-13
  IC50: 7.3 nM
[32]; Homo sapiens, A253
  IC50: 10.3 nM
[33]; Homo sapiens, GCIY
  IC50: 6.59 nM
[34]; Homo sapiens, NCI-H1770
  IC50: 0.907 nM
[35]; Homo sapiens, VA-ES-BJ
  IC50: 4.35 nM
[36]; Homo sapiens, MHH-NB-11
  IC50: 15.2 nM
[37]; Homo sapiens, CGTH-W-1
  IC50: 2.8 nM
[38]; Homo sapiens, SW 954
  IC50: 0.436 nM
[39]; Homo sapiens, MOLT-4
  IC50: 2.52 nM
[40]
  IC50: 0.393 nM
[41]; Homo sapiens, NB10
  IC50: 11 nM
[42]; Homo sapiens, GI-ME-N
  IC50: 6.08 nM
[43]; Homo sapiens, HEL
  IC50: 4.14 nM
[44]; Homo sapiens, COR-L88
  IC50: > 32 nM
[45]; Homo sapiens, EW-13
  IC50: 0.903 nM
[46]; Homo sapiens, MN-60
  IC50: > 32 nM
[47]; Homo sapiens, NCI-H1648
  IC50: 0.982 nM
[48]; Homo sapiens, KALS-1
  IC50: 3.19 nM
[49]; Homo sapiens, ACN
  IC50: 1.07 nM
